# Assay results reported in publication PMC3961306, “Comparison of the Cancer Gene Targeting and Biochemical Selectivities of All Targeted Kinase Inhibitors Approved for Clinical Use” (PLoS ONE, 2014).
# Read-outs that look alike come from different tables or passages of the source.
# Tested on: forty-four human cancer cell lines
# Test: Cell proliferation assay (ATPlite, 72 hours) in the 44 cell line Oncolines panel
# Format: cell-based
# Conditions: for IC50: Homo sapiens
# [1] = 769-P, cell line 769-P, read-out: cell panel IC50, 769-P
# [2] = 786-0, cell line 786-0, read-out: cell panel IC50, 786-0
# [3] = A 172, read-out: cell panel IC50, A-172, cell line A-172
# [4] = A204, cell line A-204, read-out: cell panel IC50, A-204
# [5] = A498, read-out: cell panel IC50, A-498, cell line A-498
# [6] = A549, read-out: cell panel IC50, A-549, cell line A-549
# [7] = A-375, cell line A375, read-out: cell panel IC50, A375
# [8] = A-427, read-out: cell panel IC50, A-427, cell line A-427
# [9] = ACHN, cell line ACHN, read-out: cell panel IC50, ACHN
# [10] = AN3-CA, cell line AN3 CA, read-out: cell panel IC50, AN3 CA
# [11] = AU565, read-out: cell panel IC50, AU-565, cell line AU-565
# [12] = BT-20, cell line BT-20, read-out: cell panel IC50, BT-20
# [13] = BT-549, read-out: cell panel IC50, BT-549, cell line BT-549
# [14] = BXPC-3, cell line BxPC-3, read-out: cell panel IC50, BxPC-3
# [15] = C-33-A, cell line C-33 A, read-out: cell panel IC50, C-33 A
# [16] = CAL-27, cell line CAL 27, read-out: cell panel IC50, CAL 27
# [17] = CCRF-CEM, cell line CCRF-CEM, read-out: cell panel IC50, CCRF-CEM
# [18] = DLD-1, cell line DLD-1, read-out: cell panel IC50, DLD-1
# [19] = FaDu, cell line FaDu, read-out: cell panel IC50, FaDu
# [20] = HCT-15, cell line HCT-15, read-out: cell panel IC50, HCT-15
# [21] = HCT-116, read-out: cell panel IC50, HCT-116, cell line HCT-116
# [22] = Hs-578T, cell line Hs 578T, read-out: cell panel IC50, Hs 578T
# [23] = Jurkat E6.1, cell line Jurkat E6.1, read-out: cell panel IC50, Jurkat E6.1
# [24] = K562, read-out: cell panel IC50, K-562, cell line K-562
# [25] = LS174T, read-out: cell panel IC50, LS 174T, cell line LS 174T
# [26] = LoVo, cell line LoVo, read-out: cell panel IC50, LoVo
# [27] = MG-63, cell line MG-63, read-out: cell panel IC50, MG-63
# [28] = MOLT-4, cell line MOLT-4, read-out: cell panel IC50, MOLT-4
# [29] = MeWo, cell line MeWo, read-out: cell panel IC50, MeWo
# [30] = NCI-H82, cell line NCI-H82, read-out: cell panel IC50, NCI-H82
# [31] = NCI-H460, cell line NCI-H460, read-out: cell panel IC50, NCI-H460
# [32] = OVCAR-3, cell line OVCAR-3, read-out: cell panel IC50, OVCAR-3
# [33] = RPMI-7951, cell line RPMI-7951, read-out: cell panel IC50, RPMI-7951
# [34] = SHP77, cell line SHP-77, read-out: cell panel IC50, SHP-77
# [35] = SK-N-AS, cell line SK-N-AS, read-out: cell panel IC50, SK-N-AS
# [36] = SW48, cell line SW48, read-out: cell panel IC50, SW48
# [37] = SW480, cell line SW480, read-out: cell panel IC50, SW480
# [38] = SW-620, cell line SW620, read-out: cell panel IC50, SW620
# [39] = U2OS, cell line U-2 OS, read-out: cell panel IC50, U-2 OS
# [40] = U-87 MG, 72 h, U-87 MG cell line, ATPlite, 72 hours, read-out: IC50 in cell proliferation assay (table S5 cellpanel data)
# [41] = cell line J82, read-out: cell panel IC50, J82
# [42] = cell line PA-1, read-out: cell panel IC50, PA-1
# [43] = cell line SJCRH30, read-out: cell panel IC50, SJCRH30
# [44] = cell line SR, read-out: cell panel IC50, SR
compound,measurement,setting,value
CC[C@]1(O)C[C@H]2CN(CCc3c([nH]c4ccccc34)[C@@](C(=O)OC)(c3cc4c(cc3OC)N(C=O)[C@H]3[C@@](O)(C(=O)OC)[C@H](OC(C)=O)[C@]5(CC)C=CCN6CC[C@]43[C@@H]65)C2)C1 [vincristine],IC50,[1],13 nM
same,IC50,[2],42 nM
same,IC50,[3],5.3 nM
same,IC50,[4],13 nM
same,IC50,[5],20 nM
same,IC50,[6],24 nM
same,IC50,[7],5.46 nM
same,IC50,[8],2.27 nM
same,IC50,[9],54 nM
same,IC50,[10],1.29 nM
same,IC50,[11],3.21 nM
same,IC50,[12],6 nM
same,IC50,[13],2.73 nM
same,IC50,[14],9 nM
same,IC50,[15],4 nM
same,IC50,[16],2.78 nM
same,IC50,[17],3.26 nM
same,IC50,[18],61 nM
same,IC50,[19],8 nM
same,IC50,[20],66 nM
same,IC50,[21],5 nM
same,IC50,[22],2.48 nM
same,IC50,[23],2.85 nM
same,IC50,[24],3.19 nM
same,IC50,[25],5 nM
same,IC50,[26],10 nM
same,IC50,[27],3.53 nM
same,IC50,[28],1.54 nM
same,IC50,[29],8.43 nM
same,IC50,[30],4.29 nM
same,IC50,[31],35 nM
same,IC50,[32],3.58 nM
same,IC50,[33],2.24 nM
same,IC50,[34],183 nM
same,IC50,[35],2.3 nM
same,IC50,[36],4.22 nM
same,IC50,[37],7 nM
same,IC50,[38],4.73 nM
same,IC50,[39],22 nM
same,IC50,[40],4.4 nM
same,IC50,[41],28 nM
same,IC50,[42],1.67 nM
same,IC50,[43],< 1 nM
same,IC50,[44],< 1 nM
COc1cc([C@@H]2c3cc4c(cc3[C@@H](O[C@@H]3O[C@@H]5CO[C@@H](C)O[C@H]5[C@H](O)[C@H]3O)[C@H]3COC(=O)[C@H]23)OCO4)cc(OC)c1O [etoposide],IC50,[1],815 nM
same,IC50,[2],3680 nM
same,IC50,[3],11100 nM
same,IC50,[4],653 nM
same,IC50,[5],1010 nM
same,IC50,[6],859 nM
same,IC50,[7],397 nM
same,IC50,[8],347 nM
same,IC50,[9],1170 nM
same,IC50,[10],3180 nM
same,IC50,[11],993 nM
same,IC50,[12],7380 nM
same,IC50,[13],1180 nM
same,IC50,[14],10700 nM
same,IC50,[15],376 nM
same,IC50,[16],525 nM
same,IC50,[17],106 nM
same,IC50,[18],5640 nM
same,IC50,[19],1350 nM
same,IC50,[20],1560 nM
same,IC50,[21],658 nM
same,IC50,[22],4000 nM
same,IC50,[23],240 nM
same,IC50,[24],1140 nM
same,IC50,[25],219 nM
same,IC50,[26],739 nM
same,IC50,[27],2100 nM
same,IC50,[28],57 nM
same,IC50,[29],5240 nM
same,IC50,[30],1010 nM
same,IC50,[31],331 nM
same,IC50,[32],22400 nM
same,IC50,[33],701 nM
same,IC50,[34],> 31600 nM
same,IC50,[35],1370 nM
same,IC50,[36],205 nM
same,IC50,[37],4650 nM
same,IC50,[38],4180 nM
same,IC50,[39],3330 nM
same,IC50,[40],29400 nM
same,IC50,[41],4940 nM
same,IC50,[42],83 nM
same,IC50,[43],1030 nM
same,IC50,[44],47 nM
CC(=O)O[C@@]12CO[C@@H]1C[C@H](O)[C@@]1(C)C(=O)[C@H](O)C3=C(C)[C@@H](OC(=O)[C@H](O)[C@@H](NC(=O)OC(C)(C)C)c4ccccc4)C[C@@](O)([C@@H](OC(=O)c4ccccc4)[C@H]21)C3(C)C [docetaxel],IC50,[1],10 nM
same,IC50,[2],17 nM
same,IC50,[3],3.25 nM
same,IC50,[4],3 nM
same,IC50,[5],13 nM
same,IC50,[6],2.14 nM
same,IC50,[7],5.52 nM
same,IC50,[8],3.5 nM
same,IC50,[9],21 nM
same,IC50,[10],0.902 nM
same,IC50,[11],2.22 nM
same,IC50,[12],9 nM
same,IC50,[13],2.85 nM
same,IC50,[14],3.35 nM
same,IC50,[15],2.85 nM
same,IC50,[16],1.64 nM
same,IC50,[17],6.45 nM
same,IC50,[18],23 nM
same,IC50,[19],1.18 nM
same,IC50,[20],58 nM
same,IC50,[21],2 nM
same,IC50,[22],2.13 nM
same,IC50,[23],2 nM
same,IC50,[24],2.68 nM
same,IC50,[25],2.22 nM
same,IC50,[26],8 nM
same,IC50,[27],1.08 nM
same,IC50,[28],1.74 nM
same,IC50,[29],2.63 nM
same,IC50,[30],1.37 nM
same,IC50,[31],5.57 nM
same,IC50,[32],4 nM
same,IC50,[33],1.9 nM
same,IC50,[34],138 nM
same,IC50,[35],3.37 nM
same,IC50,[36],3.39 nM
same,IC50,[37],3.34 nM
same,IC50,[38],2.25 nM
same,IC50,[39],7.41 nM
same,IC50,[40],11 nM
same,IC50,[41],15 nM
same,IC50,[42],0.943 nM
same,IC50,[43],2.45 nM
same,IC50,[44],2.17 nM
O=c1[nH]cc(F)c(=O)[nH]1 [5-fluorouracil],IC50,[1],4740 nM
same,IC50,[2],2210 nM
same,IC50,[3],987 nM
same,IC50,[4],1420 nM
same,IC50,[5],1700 nM
same,IC50,[6],1180 nM
same,IC50,[7],3660 nM
same,IC50,[8],1820 nM
same,IC50,[9],2450 nM
same,IC50,[10],7340 nM
same,IC50,[11],1010 nM
same,IC50,[12],6340 nM
same,IC50,[13],1850 nM
same,IC50,[14],5180 nM
same,IC50,[15],4610 nM
same,IC50,[16],4070 nM
same,IC50,[17],15100 nM
same,IC50,[18],1030 nM
same,IC50,[19],1130 nM
same,IC50,[20],1840 nM
same,IC50,[21],1260 nM
same,IC50,[22],7950 nM
same,IC50,[23],3340 nM
same,IC50,[24],5530 nM
same,IC50,[25],4800 nM
same,IC50,[26],3200 nM
same,IC50,[27],3030 nM
same,IC50,[28],2070 nM
same,IC50,[29],4280 nM
same,IC50,[30],1920 nM
same,IC50,[31],1590 nM
same,IC50,[32],3460 nM
same,IC50,[33],1220 nM
same,IC50,[34],22800 nM
same,IC50,[35],2580 nM
same,IC50,[36],1860 nM
same,IC50,[37],1730 nM
same,IC50,[38],4200 nM
same,IC50,[39],2460 nM
same,IC50,[40],2460 nM
same,IC50,[41],> 31600 nM
same,IC50,[42],814 nM
same,IC50,[43],7210 nM
same,IC50,[44],546 nM
CNC(=O)c1ccccc1Sc1ccc2c(/C=C/c3ccccn3)n[nH]c2c1 [axitinib],IC50,"4-4 cell, read-out: cell panel IC50, PA-1",1290 nM
same,IC50,"A498, read-out: cell panel IC50, A-498",3210 nM
same,IC50,"A-375, read-out: cell panel IC50, A375",5650 nM
same,IC50,"HCT-116, read-out: cell panel IC50, HCT-116",2290 nM
same,IC50,"SHP77, read-out: cell panel IC50, SHP-77",5570 nM
CC(C)C[C@H](NC(=O)[C@H](Cc1ccccc1)NC(=O)c1cnccn1)B(O)O [bortezomib],Difference between the average IC50 in the cell panel and the most potent IC50,"44 cell line panel, Figure 2D",10 fold
same,IC50,[1],18 nM
same,IC50,[2],15 nM
same,IC50,[3],4.63 nM
same,IC50,[4],2090 nM
same,IC50,[5],6 nM
same,IC50,[6],9 nM
same,IC50,[7],13 nM
same,IC50,[8],11 nM
same,IC50,[9],10 nM
same,IC50,[10],13 nM
same,IC50,[11],18 nM
same,IC50,[12],64 nM
same,IC50,[13],245 nM
same,IC50,[14],28 nM
same,IC50,[15],14 nM
same,IC50,[16],6 nM
same,IC50,[17],10 nM
same,IC50,[18],19 nM
same,IC50,[19],21 nM
same,IC50,[20],31 nM
same,IC50,[21],221 nM
same,IC50,[22],5.28 nM
same,IC50,[23],18 nM
same,IC50,[24],16 nM
same,IC50,[25],10 nM
same,IC50,[26],6 nM
same,IC50,[27],5.68 nM
same,IC50,[28],8 nM
same,IC50,[29],11 nM
same,IC50,[30],28 nM
same,IC50,[31],85 nM
same,IC50,[32],79 nM
same,IC50,[33],7 nM
same,IC50,[34],66 nM
same,IC50,[35],6 nM
same,IC50,[36],10 nM
same,IC50,[37],< 3.16 nM
same,IC50,[38],4 nM
same,IC50,[39],53 nM
same,IC50,[40],10 nM
same,IC50,[41],11 nM
same,IC50,[42],4.74 nM
same,IC50,[43],27 nM
same,IC50,[44],12 nM
